Assay results published in US20200147149A1, “COMPOSITIONS AND METHODS FOR THE MODULATION OF GUT SENSORY CELLS” (Duke University, priority 2017, published 2020).
“Also recorded” adds a separate entry of the source.

Test system: vagus nerve
Test: Vagus nerve recording during intraluminal (duodenal) nutrient or CCK perfusion
Format: in vivo, mouse
Conditions: D-glucose 150 mM perfused intraluminally, wild-type mice
Experimental: Wild-type control (n=5-9), CckCRE_ChR2-tdTomato (n=6), CckCRE_Halorhodopsin-YFP (n=5), and Vglut1CRE_ChR2-YFP (n=6) mice were used for vagal recordings. Mice were anesthetized with 3 mg/g-mouse urethane 1 hour before surgery then with 0.5-1% isoflurane. A section of neck skin was removed between the jaw and clavicle. The thyroid was reflected bilaterally, and the carotid bundle was exposed using coarse dissection. The carotid nerve was separated from the vagus nerve using a curved blunt probe. Two platinum iridium wires (0.001″ diameter, PTFE coated, 10% Ir 90% Pt; Medwire by Sigmund Cohn Corp) were looped around the vagus nerve for recording. Mineral oil was used to insulate the vagus nerve from surrounding tissue. The small intestine was exposed by removing a section of skin and peritoneum. A 20 gauge gavage needle was surgically inserted through the stomach wall and into the duodenum. The gavage needle was sutured in place beyond the pyloric sphincter. Saline and stimulant tubes were connected to the gavage needle. For optogenetic experiments, a fiber optic cable (FT020, ThorLabs) was threaded through the gavage needle into the lumen of the duodenum. A perfusion exit incision was made 10 cm distal to the pyloric sphincter. During each recording, PBS was constantly perfused through the duodenum using a peristaltic pump (Cole-Parmer) at the lowest setting for a flow rate of ˜400 uL PBS per minute. Stimulation conditions were applied after recording 2 minutes of baseline activity. During whole nutrient stimulation conditions, PBS perfusion was continuous and 200 μL of ENSURE® was perfused through the second tube for 1 minute using a syringe pump. […] During CCK stimulation conditions, PBS perfusion was continuous, and 200 μL of 2.9 μM CCK octapeptide-sulfated (BaChem) was perfused through the second tube for 1 minute using a syringe pump (Fusion 200, Chemyx) for a final concentration of ˜870 nM CCK in PBS (10 μg/kg dose). […] Final stimulant concentrations were determined using the ratio of dilution and confirmed by osmolarity testing (Model 3320 Osmometer, Advanced Instruments Inc.). During 473 nm laser stimulation conditions, PBS perfusion was continuous, and the laser was pulsed for 1 minute at 40 Hz, 4 volts peak voltage, 20% duty cycle (473 nm, 80 mW laser, RGBlase).
Extracellular voltage was recorded from a pair of platinum iridium wires as described above. A differential amplifier and bandpass filter (1000× gain, 300 Hz-5 kHz bandpass filter; A-M Systems LLC) was used and the signal was processed using a data acquisition board and software (20 kHz sampling rate; Signal Express, National Instruments Corp). The raw data was analyzed using a spike sorting algorithm (MATLAB by MathWorks). Spikes were detected using simple threshold detection based on RMS noise. The firing rate was calculated using a Gaussian kernel smoothing algorithm (200-ms time scale).
Stimulation response was quantified as the maximum firing rate after stimulation (stimulant conditions) or during recording (baseline). Each trial serves as its own control by normalizing the maximum firing rate to the average baseline firing rate (defined as the first two minutes of recording, prior to stimulation onset). Mice were excluded from analysis if no sucrose response was present throughout recording. Maximum firing rate was analyzed across genotype, stimulation condition, and their interaction term by ANOVA, followed by HSD post hoc testing (iMP by SAS Institute).

O=C[C@H](O)[C@@H](O)[C@H](O)[C@H](O)CO [D-glucose]
vagal firing rate: had the same effect; also recorded: stimulate
